According to patent US20250002854A1, “METHODS OF GENERATING POPULATIONS OF TUMOUR-INFILTRATING T CELLS” (LYTIX BIOPHARMA AS, priority 2016, published 2025):
Square brackets hold non-standard residues; d marks the D form. Ends that are not written are not given here. Dip = N[C@H](C(=O)O)C(c1ccccc1)c1ccccc1

How the values were obtained:
[1] = test system: B16F1 melanoma cells; assay: Kill kinetics (MTT); format: cell-based, murine
Experimental: Cells were seeded as previously described for MTT assay, and incubated with LTX-401 solutions for 5, 15, 30, 60, 90, 120 and 240 minutes. Cells were washed once with 100 μl of serum-free RPMI-1640 after incubation, and further incubated in a 10% MTT solution (diluted in a serum-free RPMI-1640) for an additional 2 h.

[2] = test system: B16F1 cells; assay: LysoTracker DND-26, flow cytometry and confocal microscopy; format: cell-based, murine; conditions: 27 μM, 60 minutes
Experimental: Flow cytometry: B16F1 cells were seeded in 6-well plates and allowed to adhere overnight. […] Untreated cells were used as a control. Cells were trypsinized and investigated on a FACS Calibur Flow cytometer, and the results were processed using FlowJo Software (Tree Star, Inc., Ashland, OR, USA). PI was utilized in some experiments to gate away cells with compromised plasma membrane.
Confocal microscopy: B16F1 cells were seeded in 8-well plates (Nunc) at 1×10^4 cells/well and allowed to adhere overnight. Next, cells were treated with 27 μM of LTX-401 for 60 minutes and labelled with LysoTracker DND-26 for 5 minutes and with Hoecsht33342 for nuclear staining. Cells were immediately investigated on a Zeiss Confocal microscope with a controlled temperature and atmosphere.

[3] = test system: A20, murine lymphoma; assay: LysoTracker DND-26 in non-melanocytic cell line; format: cell-based; conditions: data not shown
[4] = test system: A375 cells; assay: Confocal microscopy, internalization of fluorescence-labeled peptide; format: cell-based, human
Experimental: The A375 cell line A375 (ECACC, 88113005) is a human malignant melanoma derived from patient material, and was purchased from Public Health England (PHE Culture Collections, Porton Down, Salisbury, UK). Cells were maintained as monolayer cultures in high glucose […] DMEM supplemented with 10% FBS and 1% L-glutamine, but not as antibiotics (complete media). The cell line was grown in a humidified 5% CO2 atmosphere at 37° C., and was regularly tested for the presence of mycoplasma with MycoAlert (Lonza).
Fixed cells, fluorescence-labeled peptide—Subconfluential A375 cells were seeded at 8,000 cells/well as above, and transfected on the second day using the Lipofectamine LTX with Plus transfection reagents (Invitrogen) following the manufacturer's protocol. The mitochondria were labeled using the pDsRed2-Mito, and the nucleus was labeled using the GFP-Histon2B plasmid (Imaging Platform, University of Tromsø). A day after transfection, cells were washed twice with serum-free RPMI, and treated at different concentration and incubation periods with LTX-315 Pacific Blue or LTX-328 Pacific Blue. […] Control cells were treated with unlabeled LTX-315 and also with serum-free RPMI only. After incubation, cells were fixed with 4% paraformaldehyde in PBS, and the wells were covered with Prolong Gold antifade (Invitrogen). Cells were further analyzed by use of a Leica TCS SP5 confocal microscope, with a […] objective. Pacific Blue, GFP and Ds Red were excited using UV, with 488 and 561 lasers, and fluorescence channels were sequentially detected using the following band passes: UV: 420-480 nm (with attenuation), 488: 501-550 nm and 561: 576-676 nm.

[5] = test system: human A547 cells; assay: TEM of A547 cells, mitochondrial membrane; format: cell-based; conditions: 10 μg/ml, 60 minutes
[6] = test system: A375 cells; assay: Release of ATP (luciferase bioluminescence); format: cell-based, human; conditions: 5 minutes, different concentrations
Experimental: The supernatant of LTX-315-treated A375 cells was analyzed using an Enliten ATP luciferase assay kit (Promega, USA). Cells were then seeded as with an ROS assay, and treated with LTX-315 in different incubation times, from 1 to 15 minutes with two parallels, which was then conducted three times. Negative controls were untreated A375 cells exposed to serum-free media alone. Samples were diluted at 1:50 and 1:100, and analyzed with a Luminoscan RT luminometer according to the manufacturer's protocol.

[7] = test system: B16F1 cells; assay: Secondary tumour challenge of animals cured by LTX-315; format: in vivo, C57BL/6 mice
Experimental: Tumour cells were harvested, washed in RPMI-1640 and injected intradermally (i.d.) into the right side of the abdomen in C57BL/6 mice (5×10^4 B16F1 cells per mouse/50 μl RPMI-1640). Palpable tumours (20-30 mm^2) were injected i.t. with single doses of LTX-315 or LTX-328 dissolved in saline (1.0 mg peptide/50 μl saline) once a day for 3 consecutive days, and the vehicle control was saline only (0.9% NaCl in sterile H2O). Tumour size was measured using an electronic caliper and expressed as the area of an ellipse [(maximum dimension/2)×(minimum dimension/2)×π]. Animals were then euthanized when the product of the perpendicular tumour dimensions reached 130 mm^2 or when tumour ulceration developed. […] Animals surviving the i.d. tumour re-challenge were later given a second tumour rechallenge intravenously (i.v.) (2×10^5 cells) through the tail vein. Lungs were harvested on day 19 after the i.v. re-challenge. All mice were monitored for tumour size and survival.

[8] = test system: tumour tissue sections from patients; assay: Clinical histology, CD3/CD8 immunostaining of patient tumours; format: in vivo, human
Experimental: Formalin-fixed and paraffin-embedded tumour tissue sections from patients were deparaffinized in xylene and graded alcohols, hydrated and washed in PBS. After antigen retrieval in sodium citrate buffer (pH 6) in a microwave oven, the endogenous peroxidase was blocked by 0.3% H2O2 for 15 min. Sections were incubated overnight at 4° C. with primary antibody; rabbit polyclonal anti-CD3 (clone A0452 Dako) or mouse monoclonal anti-CD8 (clone OX8, ab33786, Abcam). As a secondary antibody, the anti-rabbit-horseradish peroxidase (HRP) SuperPicTure Polymer detection kit (Invitrogen) or Envision system HRP-anti-mouse (Dako) were used. A matched isotype control was used as a control for nonspecific background staining

Compound: Cl.Cl.NCCNC(=O)C(CN)(CCCc1ccccc1)CCCc1ccccc1 [LTX-401]
- cell survival ([1]; 54 μM, after two hours): 50%
- time until cellular survival reduced to a minimum ([1]; 108 μM): 90 to 120 min
- kill ratio ([1]; 108 μM, after 15 min): 50%
- cell death ([1]; 108 μM, two hours after start of treatment): ~100%
- LysoTracker DND-26 signal [2]: induced a decreased signal
- LysoTracker DND-26 signal [3]: achieved similar results

Compound: K-K-W-W-K-K-W-Dip-K-NH2 (KKWWKKW[Dip]K-NH2) [LTX-315]
- accumulation of labelled peptide around the mitochondria ([4]; 1.5 μM, 30 minutes): showed an accumulation around the mitochondria
- detection of labelled peptide in the cell nucleus ([4]; 1.5 μM, 30 minutes): not detected in the cell nucleus
- internalization of peptide ([4]; 3 μM, 60 min): detected in the cytoplasm
- internalization of Pacific Blue-labelled peptide ([4]; A375 cells, 3 μM and 1.5 μM): rapidly penetrated the plasma membrane
- effect on mitochondrial membrane [5]: disintegration of the mitochondrial membrane
- ATP in the supernatant [6]: detected in the supernatant as early as after 5 minutes of treatment
- animals with no tumour take ([7]; i.d. re-challenge): 60%
- animals with tumour growth absent ([7]; i.d. re-challenge with B16F1 cells 4-5 weeks after CR): 15 out of the 25
- CD3+ T cell infiltration of lung tumour foci ([7]; i.v. re-challenge, histology): significantly more infiltrated by CD3+ T cells
- mean # tumour foci (lung) ([7]; i.v. re-challenge, n=7): 15.86
- infiltration of CD3+ and CD8+ cells ([8]; breast carcinoma patient): infiltration of CD3^+ positive cells
- infiltration of CD3+ and CD8+ cells ([8]; desmoid tumour patient): infiltration of CD3^+ positive cells
- infiltration of CD8+ cells ([8]; malignant melanoma patient): infiltration of CD8^+ positive cells
- infiltration of CD3+ and CD8+ cells ([8]; metastatic melanoma patient): infiltration of CD3^+ positive cells
- infiltration of CD3+ and CD8+ cells ([8]; myo-epithelioma patient): infiltration of CD3^+ positive cells
